Laboratory results: patent US8841302B2, “HCV inhibitor and therapeutic agent combinations” (PTC Therapeutics, Inc., priority 2009, dated 2014)

System: HCV replicon RNA in replicon cells
Experiment: Replicon RNA response to antiviral agent(s), real time PCR (Taqman assay)
Type: cell-based
Conditions: replicon cells treated 3 days
Protocol: Replicon cells were seeded at ˜5000 cells/well in 96-well collagen I-coated Biocoat plates (Becton Dickinson). At 24 hrs post-seeding, a series of replicon cells were treated with a HCV protease inhibitor and a HCV inhibitor. The final concentration of DMSO was 0.5%, fetal bovine serum was 10%, and G418 (an aminoglycoside used as a selective agent) was 500 μg/mL.
To each concentration of Compound 10p, HCV inhibitor Compound 31 was titrated. After 3 days, the cells were washed with PBS and lysed in 1× Cell Lysis Buffer (Ambion cat #8721).
The replicon RNA level was measured using real time PCR (Taqman assay). The ampicon was located in NS5b. The PCR primers used were: 5B.2F, ATGGACAGGCGCCCTGA (SEQ ID NO: 1); 5B.2R, […] (SEQ ID NO: 2); the probe sequence was FAM-labeled CACGCCATGCGCTGCGG (SEQ ID NO: 3). GAPDH RNA was used as endogenous control and was amplified in the same reaction as NS5b (multiplex PCR) using primers and VIC-labeled probe recommended by the manufacturer (PE Applied Biosystem). The real-time RT-PCR reactions were run on ABI PRISM 7900HT Sequence Detection System using the following program: 48° C. for 30 min, 95° C. for 10 min, 40 cycles of 95° C. for 15 sec, 60° C. for 1 min. The ΔCT values (CT5B-CTGAPDH) were plotted against test compound concentration and fitted to the sigmoid dose response model using Graphpad PRISM software (Graphpad Software Inc.). The half maximal inhibitory concentration (IC50) is the concentration necessary to achieve ΔCT=1 over the projected baseline. The 90% maximal inhibitory concentration (IC90) is the concentration necessary to achieve ΔCT=3.2 over the baseline. Alternatively, to quantitate the absolute amount of replicon RNA, a standard curve was established by including serially diluted T7 transcripts of replicon RNA in the Taqman assay. All Taqman reagents were from PE Applied Biosystem.

Structure (SMILES)	relative inhibition (logarithmic scale) of replicon RNA level (Cpd 10p 0.19 μM alone (Compound 31 0 μM))	relative inhibition (logarithmic scale) of replicon RNA level (Cpd 10p 1.5 μM alone (Compound 31 0 μM))	relative inhibition (logarithmic scale) of replicon RNA level (Compound 31 0.045 μM in combination with Cpd 10p 0.19 μM)	relative inhibition (logarithmic scale) of replicon RNA level (Compound 31 0.045 μM in combination with Cpd 10p 1.5 μM)	relative inhibition (logarithmic scale) of replicon RNA level (Compound 31 0.405 μM in combination with Cpd 10p 0.19 μM)	relative inhibition (logarithmic scale) of replicon RNA level (Compound 31 0.405 μM in combination with Cpd 10p 1.5 μM)
CC(C)(C)NC(=O)N[C@H](C(=O)N1C[C@H]2[C@@H]([C@H]1C(=O)NC(CC1CCC1)C(=O)C(N)=O)C2(C)C)C(C)(C)C (stereo partly drawn) [Cpd 10p, (1R,2S,5S)-N-(4-amino-1-cyclobutyl-3,4-dioxobutan-2-yl)-3-((S)-2-(3-tert-butylureido)-3,3-dimethylbutanoyl)-6,6-dimethyl-3-azabicyclo[3.1.0]hexane-2-carboxamide, reference compound]	−0.11	−1.52				
N#Cc1c(-c2ccc(S(=O)(=O)NC(CF)CF)cn2)n(C2CCC2)c2cc(OC(F)F)ccc12 [Compound 31, 6-[3-cyano-1-cyclobutyl-6-(difluoromethoxy)-1H-indol-2-yl]-N-(1,3-difluoropropan-2-yl)pyridine-3-sulfonamide]			−1.16	−1.72	−1.73	−2.02
